According to patent publication US7713994B2 (Wyeth LLC, priority 2005, dated 2010):
Like-named read-outs stand apart in the source and are kept apart here.

How the values were obtained:
[1] = test system: BT474; assay: Cytotoxicity assay (SRB), BT474; type: cell-based
Summary of the method: (§1)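 Percentage survival is derived from SRB absorbance (540 nm) versus untreated cells. Exposures were 3 days, except 6 days for BT474, at 37 °C and 7% CO2.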

[2] = test system: MCF-7; assay: Cytotoxicity assay (SRB), MCF-7; type: cell-based; conditions: MCF-7 cells, SRB, read-out: In Vitro Cellular Activity IC50 MCF-7
Summary of the method: as §1

[3] = molecular target: T1, cyclin D1/cdk 4 enzyme (Homo sapiens, UniProt P11802); assay: CDK4 ELISA kinase assay (phospho-Rb ser 795 detection); type: biochemical
T1 construct: made in house; host or cells: Sf9 insect cells, recombinant baculovirus
Summary of the method: (§2)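 Inhibition was derived from A450 relative to control wells lacking compound, following an anti-phospho-Rb Ser795 sandwich of HRP detection. The reactions combined coated GST-Rb fragment, 200 μM ATP and baculovirus-expressed cyclin/CDK enzymes, incubated for 1 h at 30° C.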

[4] = test system: LoVo; assay: Cytotoxicity assay (SRB), LoVo; type: cell-based; conditions: LoVo cells, SRB, read-out: In Vitro Cellular Activity IC50 LOVO
Summary of the method: as §1

[5] = molecular target: T2, cyclin E/CDK2 enzyme (Homo sapiens, UniProt P24941); assay: CDK2 ELISA kinase assay (phospho-Rb ser 795 detection); type: biochemical
T2 construct: made in house; host or cells: Sf9 insect cells, recombinant baculovirus
Summary of the method: as §2

[6] = test system: HCT-116; assay: Cytotoxicity assay (SRB), HCT-116; type: cell-based; conditions: HCT116 cells, SRB, read-out: In Vitro Cellular Activity IC50 HCT116
Summary of the method: as §1

[7] = molecular target: T3, cyclin B/CDK1 enzyme (Homo sapiens, UniProt P06493); assay: CDK1 ELISA kinase assay (phospho-Rb ser 795 detection); type: biochemical
T3 construct: purchased New England BioLabs; host or cells: Sf9 insect cells, recombinant baculovirus
Summary of the method: as §2

[8] = Homo sapiens, BT-474, 144 h, BT474 cells, SRB, 6 days; read-out: In Vitro Cellular Activity IC50 BT474
[9] = Homo sapiens, MCF7, 72 h, three days
[10] = In Vitro Enzyme Assays, 200 μM ATP, read-out: CDK4 IC50
[11] = Homo sapiens, LoVo, 72 h, three days
[12] = In Vitro Enzyme Assays, read-out: CDK2 IC50
[13] = Homo sapiens, HCT-116, 72 h, three days
[14] = In Vitro Enzyme Assays, read-out: CDK1 IC50
[15] = Homo sapiens, BT-474, 144 h, BT474 cells, 6 days, SRB; read-out: In Vitro Cellular Activity IC50 BT474
[16] = Homo sapiens, MCF7, 72 h, 3 days
[17] = Homo sapiens, LoVo, 72 h, 3 days
[18] = Homo sapiens, HCT-116, 72 h, 3 days
[19] = In Vitro Enzyme Assay, cyclin D1/cdk 4, read-out: CDK4 IC50
[20] = In Vitro Enzyme Assay, cyclin E/CDK2, read-out: CDK2 IC50
[21] = In Vitro Enzyme Assay, cyclin B/CDK1, read-out: CDK1 IC50

T1 sequence (P11802 whole entry, species assumed): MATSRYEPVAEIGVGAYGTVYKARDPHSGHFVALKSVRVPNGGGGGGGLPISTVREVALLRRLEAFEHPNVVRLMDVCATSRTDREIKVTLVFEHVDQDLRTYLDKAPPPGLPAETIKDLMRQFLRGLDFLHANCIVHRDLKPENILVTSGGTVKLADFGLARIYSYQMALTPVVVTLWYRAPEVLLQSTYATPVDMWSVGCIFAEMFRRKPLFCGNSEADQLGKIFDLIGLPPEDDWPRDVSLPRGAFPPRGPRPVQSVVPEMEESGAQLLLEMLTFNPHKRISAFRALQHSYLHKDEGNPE
T1 sequence (P24385 whole entry partner, species assumed): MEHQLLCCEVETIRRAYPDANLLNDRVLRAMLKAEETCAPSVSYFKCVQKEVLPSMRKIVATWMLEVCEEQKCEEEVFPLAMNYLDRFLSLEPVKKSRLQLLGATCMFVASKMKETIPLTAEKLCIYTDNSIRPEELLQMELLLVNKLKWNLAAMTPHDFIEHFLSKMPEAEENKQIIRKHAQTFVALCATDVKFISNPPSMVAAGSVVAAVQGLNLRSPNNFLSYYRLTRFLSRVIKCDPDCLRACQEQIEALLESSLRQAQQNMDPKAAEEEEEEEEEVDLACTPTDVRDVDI
T3 sequence (P06493 whole entry): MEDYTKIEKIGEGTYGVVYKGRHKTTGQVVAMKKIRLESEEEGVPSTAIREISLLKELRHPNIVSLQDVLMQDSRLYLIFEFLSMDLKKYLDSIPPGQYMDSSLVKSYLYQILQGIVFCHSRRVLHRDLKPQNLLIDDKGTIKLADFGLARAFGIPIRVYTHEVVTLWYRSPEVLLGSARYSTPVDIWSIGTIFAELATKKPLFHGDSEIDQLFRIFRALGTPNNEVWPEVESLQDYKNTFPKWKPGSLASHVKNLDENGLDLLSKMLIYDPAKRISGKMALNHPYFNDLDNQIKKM
T3 sequence (P14635 whole entry partner): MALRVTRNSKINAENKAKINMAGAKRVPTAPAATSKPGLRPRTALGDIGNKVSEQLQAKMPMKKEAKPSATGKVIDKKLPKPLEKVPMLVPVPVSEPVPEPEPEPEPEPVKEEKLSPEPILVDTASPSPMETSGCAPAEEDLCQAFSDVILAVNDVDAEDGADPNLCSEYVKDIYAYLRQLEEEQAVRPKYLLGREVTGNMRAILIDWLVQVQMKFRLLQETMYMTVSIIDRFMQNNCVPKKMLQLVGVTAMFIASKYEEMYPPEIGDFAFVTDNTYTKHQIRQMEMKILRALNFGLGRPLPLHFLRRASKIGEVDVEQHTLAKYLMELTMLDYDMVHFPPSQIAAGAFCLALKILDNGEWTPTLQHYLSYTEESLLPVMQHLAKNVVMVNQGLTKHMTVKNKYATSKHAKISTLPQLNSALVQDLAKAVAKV

Compound | IC50 [1, 8] | IC50 [2, 9] | IC50 [3, 10] | IC50 [4, 11] | IC50 [5, 12] | IC50 [6, 13] | IC50 [7, 14] | IC50 [1, 15] | IC50 [2, 16] | IC50 [4, 17] | IC50 [6, 18] | IC50 [3, 19] | IC50 [5, 20] | IC50 [7, 21] | other results
CC(=O)Nc1ccc(CN/C=C2\C(=O)NC(=O)c3ccc(-c4ccsc4)cc32)cc1O [Example 145, N-[4-({[(Z)-(1,3-Dioxo-6-thien-3-yl-2,3-dihydroisoquinolin-4(1H)-′ylidene)methyl]amino}methyl)-2-hydroxyphenyl]acetamide] | > 50 µM | > 50 µM | 0.004 µM | 16 µM | 6.1 µM | 32.5 µM | 26.3 µM | – | – | – | – | – | – | – | –
CN1CCCC1c1ccc(N/C=C2\C(=O)NC(=O)c3ccc(-c4cccs4)cc32)cc1 (centres unmarked) [Example 450, 4-{[4-(1-Methyl-pyrrolidin-2-yl)-phenylamino]-methylene}-6-thiophen-2-yl-4H-isoquinoline-1,3-dione] | – | – | 0.18 µM | – | > 50 µM | – | > 50 µM | 1.9 µM | 2.5 µM | 2.8 µM | 2.5 µM | – | – | – | –
NC(=O)C1CCN(c2ccc(N/C=C3\C(=O)NC(=O)c4ccc(I)cc43)cc2)CC1 [Example 430, 1-(4-{[(Z)-(6-Iodo-1,3-dioxo-2,3-dihydroisoquinolin-4(1H)-ylidene)methyl]amino}phenyl)piperidine-4-carboxamide] | – | – | 2.3 µM | – | 15.4 µM | – | 19.3 µM | 13.8 µM | 11.7 µM | 14.9 µM | 5.6 µM | – | – | – | –
O=C1NC(=O)c2ccc(-c3cccc(Cl)c3)cc2C1=CNCc1ccc(O)c(O)c1 [Example 779, 6-(3-Chloro-phenyl)-4-[(3,4-dihydroxy-benzylamino)-methylene]-4H-isoquinoline-1,3-dione] | – | – | – | – | – | – | – | 20.3 µM | 12.7 µM | 14.1 µM | 15 µM | 0.74 µM | 31.1 µM | > 50 µM | –
CC(C)[Si](Oc1cc(CN/C=C2\C(=O)NC(=O)c3ccc(I)cc32)ccc1N)(C(C)C)C(C)C [Example 323, (4Z)-4-[({4-Amino-3-[(triisopropylsilyl)oxy]benzyl}amino)methylene]-6-iodoisoquinoline-1,3(2H,4H)-dione] | 18.3 µM | 10 µM | – | > 50 µM | 42.5 µM | 22 µM | – | – | – | – | – | – | – | – | IC50 ([3]; CDK4 IC50, In Vitro Enzyme Assays, 200 μM ATP): 1.9 µM; IC50 ([7]; CDK1 IC50, In Vitro Enzyme Assays): > 50 µM
CN(C)c1ccc(-c2ccc3c(c2)C(=CNCc2ccc(O)c(O)c2)C(=O)NC3=O)cc1 [Example 816, 4-[(3,4-Dihydroxy-benzylamino)-methylene]-6-(4-dimethylamino-phenyl)-4H-isoquinoline-1,3-dione] | – | – | – | – | – | – | – | 4 µM | 10.1 µM | 10.2 µM | 11.6 µM | 0.31 µM | 24.2 µM | > 50 µM | –
O=C1NC(=O)c2ccc(Br)cc2/C1=C/Nc1ccc2c(c1)CCN2 [Example 214, (4Z)-6-Bromo-4-[(2,3-dihydro-1H-indol-5-ylamino)methylene]isoquinoline-1,3(2H,4H)-dione] | 6.8 µM | 14 µM | 17.6 µM | > 50 µM | 6.3 µM | 39 µM | > 50 µM | – | – | – | – | – | – | – | –
CCCOc1cc(O)cc(CN/C=C2\C(=O)NC(=O)c3ccc(Br)cc32)c1 [Example 195] | 17 µM | 14 µM | 2 µM | 37 µM | > 50 µM | 6.9 µM | > 50 µM | – | – | – | – | – | – | – | –
CN1CCN(CCN(C)c2ccc(NC=C3C(=O)NC(=O)c4ccc(Br)cc43)cc2)CC1 (stereo in doubt) [Example 870, (4Z)-6-Bromo-4-{[(4-{methyl[2-(4-methylpiperazin-1-yl)ethyl]amino}phenyl)amino]methylene}isoquinoline-1,3(2H,4H)-dione] | – | – | – | – | – | – | – | 10.2 µM | 9.2 µM | 10.5 µM | 3 µM | – | – | – | IC50 ([3]; In Vitro Enzyme Assay, read-out: CDK4 IC50): 2.6 µM; IC50 ([5]; In Vitro Enzyme Assay, read-out: CDK2 IC50): > 50 µM; IC50 ([7]; In Vitro Enzyme Assay, read-out: CDK1 IC50): > 50 µM
CN1CCC(N2CCN(c3ccc(N/C=C4\C(=O)NC(=O)c5ccc(I)cc54)cc3)CC2)CC1 [Example 387, (4Z)-6-Iodo-4-[({4-[4-(1-methylpiperidin-4-yl)piperazin-1-yl]phenyl}amino)methylene]isoquinoline-1,3(2H,4H)-dione] | 25 µM | 24 µM | 0.9 µM | 33 µM | > 50 µM | 7.7 µM | > 50 µM | – | – | – | – | – | – | – | –
CN1CCN(c2ccc(N/C=C3\C(=O)NC(=O)c4ccc(-c5ccoc5)cc43)c(F)n2)CC1 [Example 497, (4Z)-4-({[2-Fluoro-6-(4-methylpiperazin-1-yl)pyridin-3-yl]amino}methylene)-6-(3-furyl)isoquinoline-1,3(2H,4H)-dione] | – | – | – | – | – | – | – | – | – | – | – | 0.37 µM | > 50 µM | > 50 µM | IC50 ([1]; BT474 cells, 6 days, SRB; read-out: In Vitro Cellular Activity IC50 BT474): 2.7 µM; IC50 ([2]; 3 days): 1.4 µM; IC50 ([4]; 3 days): 3.2 µM; IC50 ([6]; 3 days): 2.6 µM
O=C1NC(=O)c2ccc(N3Cc4ccccc4C3)cc2C1=CNCc1ccc(O)c(O)c1 [Example 610, 6-(1,3-Dihydro-isoindol-2-yl)-4-[(3,4-dihydroxy-benzylamino)-methylene]-4H-isoquinoline-1,3-dione] | – | – | – | – | – | – | – | 27 µM | 12.2 µM | 11.1 µM | 9.9 µM | 0.38 µM | 2.5 µM | 3.5 µM | –
CCCOc1ccc(CN/C=C2\C(=O)NC(=O)c3ccc(-c4ccc(F)c(F)c4)cc32)cc1O [Example 194, (4Z)-6-(3,4-Difluorophenyl)-4-{[(3-hydroxy-4-propoxybenzyl)amino]methylene}-isoquinoline-1,3(2H,4H)-dione] | > 50 µM | 9.1 µM | 15.8 µM | > 50 µM | > 50 µM | > 50 µM | > 50 µM | – | – | – | – | – | – | – | –
O=C1NC(=O)c2ccc(C=CC3CCCCC3)cc2C1=CNCc1ccc(O)c(O)c1 [Example 664, 6-(2-Cyclohexyl-vinyl)-4-[(3,4-dihydroxy-benzylamino)-methylene]-4H-isoquinoline-1,3-dione] | – | – | – | – | – | – | – | 9.3 µM | 4.8 µM | 6 µM | 6.7 µM | 0.22 µM | 31.7 µM | > 50 µM | –
O=C1NC(=O)c2ccc(-c3ccc(Cl)cc3Cl)cc2C1=CNCc1ccc(O)c(O)c1 [Example 823, 6-(2,4-Dichloro-phenyl)-4-[(3,4-dihydroxy-benzylamino)-methylene]-4H-isoquinoline-1,3-dione] | – | – | – | – | – | – | – | 21.4 µM | 14.8 µM | 12.3 µM | 11.9 µM | 0.22 µM | 2.4 µM | 9.4 µM | –
O=C1NC(=O)c2ccc(-c3ccco3)cc2/C1=C/Nc1ccc(CN2CCC[C@H]2CO)cc1 [Example 466, 6-Furan-2-yl-4-{[4-(2-hydroxymethyl-pyrrolidin-1-ylmethyl)-phenylamino]-methylene}-4H-isoquinoline-1,3-dione] | – | – | – | – | – | – | – | 1.4 µM | 1.2 µM | 2.1 µM | 2.1 µM | 0.13 µM | > 50 µM | > 50 µM | –
CCN1CCN(c2ccc(N/C=C3\C(=O)NC(=O)c4ccc(-c5ccoc5)cc43)cn2)CC1 [Example 416, (4Z)-4-({[6-(4-Ethylpiperazin-1-yl)pyridin-3-yl]amino}methylene)-6-(3-furyl)isoquinoline-1,3(2H,4H)-dione] | – | – | 0.13 µM | – | > 50 µM | – | > 50 µM | 2.5 µM | 6.2 µM | 3.1 µM | 2.7 µM | – | – | – | –
